Key:
[1] = system: production of nitric oxide in RAW264.7 cells; assay: Assay for inhibitory activity on the production of nitric oxide (Griess, LPS + INFγ activated cells); type: cell-based, murine; conditions: Mus musculus; test compound 10^-5 M; RAW264.7 cells activated with LPS 1 μg/ml and INFγ 3 u/ml for 18-24 hours
Protocol: Test: Assay for Inhibitory Activity on the Production of Nitric Oxide
The murine macrophage cell line RAW264.7 (American Type Culture Collection, No. TIB71) was used in this study. RAW264.7 cells were grown on F75 plastic culture flasks at 37° C., 5% in Dulbecco's modified Eagle's medium (DMEM) supplemented with L-glutamine, penicillin, streptomycin and 10% heat-inactivated fetal bovine serum. They were removed from culture flasks by rubber cell scraper and were centrifuged and resuspended in DMEM without phenol red. They were plated in 96-well microtiter plates (10^5 cells per well) and allowed to adhere over 2 hours. The test samples were added and the cells were preincubated for 1 hour. Thereafter the cells were activated with both of lipopolysaccharide (LPS) (1 μg/ml) and interferon γ (INFγ) (3 u/ml) for 18-24 hours. An equal volume of Griess reagent (1% sulfanilamide/0.1% N-naphthylethylenediamine dihydrochloride/2.5% H3PO4) was added and the cells were incubated at room temperature for 10 minutes. The absorbance was read at 570 nm using microplate reader and NO2 was measured using NaNO2 as a standard.

NOx in rat plasma = assay: Concentration of nitrite/nitrate (NOx) in rat plasma after cardiac transplantation (Griess reaction); type: in vivo
Protocol: (§1) Experiments were performed on male Lewis and ACI rats weighing 175-200 g. Rats were anesthetized with sodium pentobarbital (50 mg/kg, i.p), and performed allogeneic (Lewis donor to ACI recipient) heterotopic intra-abdominal cardiac transplantation. Experimental groups were divided into single-drug group and combined-drug groups. Single-drug dose of FK506 was 0.32 mg/kg. Combined-dose groups were FK506(0.32 mg/kg)+the compound (f) (3.2 mg/kg), FK506(0.32 mg/kg)+the compound (f) (10 mg/kg), and FK506(0.32 mg/kg)+the compound (g) (10 mg/kg). The grafted hearts were monitored by daily palpation and complete rejection was defined as the cessation of palpable contractile activity. Drugs were suspended in a solution of 0.5% methylcellulose, and administered by daily gastric intubation in a volume of 5 ml/kg of body weight for 14 days. The blood samples were collected on 5 days after transplantation for analysis of nitrite/nitrate (NOx). The concentration of NOx in rat plasma was measured by using a spectrophotometric assay based upon the Griess reaction.

rat cardiac allograft = assay: Rat cardiac allograft survival (Lewis donor to ACI recipient, heterotopic intra-abdominal cardiac transplantation); type: in vivo; conditions: for MST (Median Survival Time): daily gastric intubation for 14 days
Protocol: Protective effect of the compound (f) or (g) combined with FK506 on rat cardiac allograft:
as §1

## Cn1c(-c2ccc([N+](=O)[O-])cc2)cnc1[C@H](CC(=O)Nc1ccc2c(c1)OCO2)NC(=O)c1cc2ccccc2[nH]1 [(e)]
[1]
  inhibition at 10 µM: 100%

## Cn1c(-c2ccc([N+](=O)[O-])cc2)cnc1[C@H](Cc1ccccn1)NC(=O)c1cc2cc(Cl)ccc2[nH]1 [(b)]
[1]
  inhibition at 10 µM: 100%

## CCOc1ccc(-c2c(Cc3ccccc3)nc([C@H](Cc3ccccn3)NC(=O)c3cc4ccccc4[nH]3)n2C)cc1 [(a)]
[1]
  inhibition at 10 µM: 100%

## Cn1c(-c2ccc([N+](=O)[O-])cc2)cnc1[C@H](CC(=O)Nc1ccccn1)NC(=O)c1cc2ccccc2[nH]1 [(c)]
[1]
  inhibition at 10 µM: 100%

## COc1ccc(NC(=O)C[C@H](NC(=O)c2cc3ccccc3[nH]2)c2ncc(-c3ccc([N+](=O)[O-])cc3)n2C)cc1 [(d)]
[1]
  inhibition at 10 µM: 100%

## C=CC[C@@H]1/C=C(\C)C[C@H](C)C[C@H](OC)[C@H]2O[C@@](O)(C(=O)C(=O)N3CCCC[C@H]3C(=O)O[C@H](/C(C)=C/[C@@H]3CC[C@@H](O)[C@H](OC)C3)[C@H](C)[C@@H](O)CC1=O)[C@H](C)C[C@@H]2OC [FK506, 17-allyl-1,14-dihydroxy-12-[2-(4-hydroxy-3-methoxycyclohexyl)-1-methylvinyl]-23,25-dimethoxy-13,19,21,27-tetramethyl-11,28-dioxa-4-azatricyclo[22.3.1.0^4,9]octacos-18-ene-2,3,10,16-tetraone, reference compound]
NOx in rat plasma; Table 1, FK506 0.32 mg/kg alone, rat plasma, 5 days after transplantation
  NOx: >40 µM
Rat cardiac allograft; Table 1, FK506 0.32 mg/kg alone
  MST (Median Survival Time): 8.5 days
Rat cardiac allograft; Table 2, FK506 0.32 mg/kg alone
  MST (Median Survival Time): 10 days

## Cn1c(-c2ccc(N3CCOCC3)cc2)cnc1[C@H](Cc1ccccn1)NC(=O)c1cc2cc(Cl)ccc2o1 [(g)]
[1]
  inhibition at 10 µM: 100%
NOx in rat plasma; rat cardiac allograft, in a dose-dependent manner
  elevated NOx production during cardiac allograft rejection: inhibited
Rat cardiac allograft; Table 2, compound (g) 10 mg/kg + FK506 0.32 mg/kg
  MST (Median Survival Time): >30 days
Rat cardiac allograft; combination with FK506, rat cardiac allograft
  graft survival: dramatically prolonged

— US6673807B1, “Immunosuppressive imidazole derivatives and their combination preparations with tacrolimus or cyclosporins” (Fujisawa Pharmaceutical Co., Ltd., priority 1998, dated 2004)
